Experimental data: the NIST ThermoML archive (doi:10.1016/j.jct.2013.12.028)

What was measured:
[1] = refractive index (Na D-line) (dimensionless); details: 298.15 K; 101.33 kPa; Liquid; Pulfrich refractometry
[2] = 101.33 kPa, Liquid, Vibrating tube method

C1CCOC1 [tetrahydrofuran]
Details	refractive index
[1]	1.4048

[2]
Details	mass density [kg/m3]
278.15 K	903.68
283.15 K	898.309
288.15 K	892.903
293.15 K	887.471
298.15 K	882.005
303.15 K	876.513
308.15 K	870.981
313.15 K	865.414
318.15 K	859.81
